{"source": "paper PMC5517430", "about": "“2,3,7,8-Tetrachlorodibenzo-p-dioxin (TCDD)-elicited effects on bile acid homeostasis: Alterations in biosynthesis, enterohepatic circulation, and microbial metabolism” (Scientific Reports, 2017)", "key": {"[1]": {"system": "liver of C57BL/6 mice", "experiment": "Histopathological scoring of liver sections", "type": "in vivo, mouse", "parameters": "Fibrosis (periportal), Mean Grade / Vacuolation (centrilobular), Mean Grade / Necrosis; Inflammatory cell foci, Mean Grade / Bile duct proliferation, Mean Grade: scale not given here", "details": "for Bile duct proliferation, Mean Grade / Fibrosis (periportal), Mean Grade / Necrosis; Inflammatory cell foci, Mean Grade / Vacuolation (centrilobular), Mean Grade: mean ±SD; for Dose at which hepatocyte vacuolization (fatty change) was first observed / Doses at which minimal to slight hepatocyte necrosis and inflammatory cell infiltration were present: every 4 d for 28 d", "protocol": "Postnatal day 25 (PND25) male C57BL/6 mice weighing within 10% of each other were obtained from Charles River Laboratories (Kingston, NY) and housed in Innovive Innocages (San Diego, CA) containing ALPHA-dri bedding (Shepherd Specialty Papers, Chicago, IL) in a 23 °C environment with 30–40% humidity and a 12-hour light/dark cycle (7am–7 pm). Mice were provided Aquavive water (Innovive) and Harlan Teklad 22/5 Rodent Diet 8940 (Madison, WI) ad libitum, and were acclimated for […] prior to treatment. Beginning on PND28, animals (n = 8; co-housed 4 per cage) were orally gavaged with sesame oil vehicle (Sigma-Aldrich, St. Louis, MO), 0.01, 0.03, 0.1, 0.3, 1, 3, 10, or 30 μg/kg TCDD (AccuStandard, New Haven, CT) every 4d for a total of 28d (7 exposures; Supplementary Fig. S3). The doses used compensate for the relatively short study duration compared to lifelong cumulative human exposure from diverse AhR ligands, the bioaccumulative nature of halogenated AhR ligands, and differences in TCDD’s metabolism and half-life (humans: 1–11 years, [61], mice: 8–12d[62]). TCDD doses between 0.01 and 30 µg/kg result in mouse hepatic tissue levels that span human background serum concentrations reported in the United States, Germany, Spain, and the United Kingdom as well as serum levels in Viktor Yushchenko 4–39 months following intentional poisoning. For the histopathological comparison, female C57BL/6 mice were orally gavaged with sesame oil vehicle or 0.01–30 µg/kg TCDD every 4d for 28d, as previously described. All animal handling procedures were performed with the approval of the Michigan State University (MSU) Institutional Animal Care and Use Committee, in accordance with the relevant ethical guidelines and regulations.\nAll processing was performed by the MSU Investigative Histopathology Laboratory (https://humanpathology.natsci.msu.edu/). Formalin-fixed hepatic tissues were vacuum infiltrated with paraffin using a Tissue-Tek VIP 2000 tissue processor (Sakura) and embedded with the Thermo Fisher HistoCentre III Embedding Center (Thermo Fisher, Waltham, Massachusetts). Paraffin blocks were sectioned at 4–5 µm with a Reichert Jung 2030 rotary microtome (Reichert, Depew, New York) and dried for 2–24 h at 56 °C to ensure adherence to the slides. For lipid staining, liver sections frozen in O.C.T. compound were sectioned at 6 µm, fixed in 10% NBF for 5 min, rinsed with water, and immersed in 100% propylene glycol for 5 min. Liver sections were stained with hematoxylin and eosin (H&E) for general histological assessment. Lipids were stained using Oil Red O (ORO) as previously described. Macrophages were labeled using a monoclonal anti-mouse F4/80 antibody (1:100 dilution; AbD Serotec, Raleigh, NC). Collagen was stained with 0.1% Picro-Sirius Red (PSR) dye, with Weigert’s Hematoxylin nuclear dye. Histological assessment of hepatic tissue from female C57BL/6 mice was performed as previously described, [32]."}, "[2]": {"system": "Gpbar1", "experiment": "Hepatic qRT-PCR", "type": "in vivo", "details": "Mus musculus; male mice, 30 µg/kg TCDD every 4 d for 28 d; read-out: Gpbar1 hepatic expression (qRT-PCR), fold induction", "protocol": "Given the low (≤10) read counts for Gpbar1 in the RNA-Seq dataset, differential expression was confirmed by qRT-PCR[13]. Total hepatic RNA was reverse transcribed by SuperScript II (Invitrogen) using oligo dT primer according to the manufacturer’s protocol. PCR amplification was conducted on a Bio-Rad CFX Connect Real-Time PCR Detection System. Gene expression relative to vehicle control was calculated using the 2^−∆∆CT method, where each sample was normalized to the geometric mean of 3 housekeeping genes (Actb, Gapdh, and Hprt). Gene expression data are plotted relative to vehicle control. Forward and reverse primer sequences are provided in Supplementary Table S2."}, "[3]": {"details": "female, 0.3 µg/kg TCDD every 4 d for 28 d"}, "[4]": {"details": "female, 1 µg/kg TCDD every 4 d for 28 d"}, "[5]": {"details": "female, 3 µg/kg TCDD every 4 d for 28 d"}, "[6]": {"details": "female, 10 µg/kg TCDD every 4 d for 28 d"}, "[7]": {"details": "female, 30 µg/kg TCDD every 4 d for 28 d"}, "[8]": {"details": "male, 0.3 µg/kg TCDD every 4 d for 28 d"}, "[9]": {"details": "male, 1 µg/kg TCDD every 4 d for 28 d"}, "[10]": {"details": "male, 3 µg/kg TCDD every 4 d for 28 d"}, "[11]": {"details": "male, 10 µg/kg TCDD every 4 d for 28 d"}, "[12]": {"details": "male, 30 µg/kg TCDD every 4 d for 28 d"}}, "data": [{"smiles": "Clc1cc2c(cc1Cl)Oc1cc(Cl)c(Cl)cc1O2", "note": "[TCDD, 2,3,7,8-tetrachlorodibenzo-p-dioxin]", "values": [{"measurement": "Inflammation surrounding the bile ducts (pericholangitis)", "setting": "[1]; 30 µg/kg TCDD every 4 d for 28 d, male vs female", "result": "exclusive to males"}, {"measurement": "Bile duct proliferation, Incidence", "setting": "[1]; [3]", "result": "0/8"}, {"measurement": "Fibrosis (periportal), Incidence", "setting": "[1]; [3]", "result": "0/8"}, {"measurement": "Necrosis; Inflammatory cell foci, Incidence", "setting": "[1]; [3]", "result": "0/8"}, {"measurement": "Vacuolation (centrilobular), Incidence", "setting": "[1]; [3]", "result": "0/8"}, {"measurement": "Bile duct proliferation, Incidence", "setting": "[1]; [4]", "result": "0/6"}, {"measurement": "Fibrosis (periportal), Incidence", "setting": "[1]; [4]", "result": "0/6"}, {"measurement": "Necrosis; Inflammatory cell foci, Incidence", "setting": "[1]; [4]", "result": "0/6"}, {"measurement": "Vacuolation (centrilobular), Incidence", "setting": "[1]; [4]", "result": "0/6"}, {"measurement": "Bile duct proliferation, Incidence", "setting": "[1]; [5]", "result": "0/6"}, {"measurement": "Fibrosis (periportal), Incidence", "setting": "[1]; [5]", "result": "0/6"}, {"measurement": "Necrosis; Inflammatory cell foci, Incidence", "setting": "[1]; [5]", "result": "0/6"}, {"measurement": "Vacuolation (centrilobular), Incidence", "setting": "[1]; [5]", "result": "0/6"}, {"measurement": "Bile duct proliferation, Incidence", "setting": "[1]; [6]", "result": "0/4"}, {"measurement": "Fibrosis (periportal), Incidence", "setting": "[1]; [6]", "result": "0/4"}, {"measurement": "Necrosis; Inflammatory cell foci, Incidence", "setting": "[1]; [6]", "result": "0/4"}, {"measurement": "Vacuolation (centrilobular), Incidence", "setting": "[1]; [6]", "result": "1/4"}, {"measurement": "Bile duct proliferation, Incidence", "setting": "[1]; [7]", "result": "1/4"}, {"measurement": "Fibrosis (periportal), Incidence", "setting": "[1]; [7]", "result": "1/4"}, {"measurement": "Necrosis; Inflammatory cell foci, Incidence", "setting": "[1]; [7]", "result": "1/4"}, {"measurement": "Vacuolation (centrilobular), Incidence", "setting": "[1]; [7]", "result": "4/4"}, {"measurement": "Bile duct proliferation, Mean Grade", "setting": "[1]; [7]", "result": "0.3 ± 0.5"}, {"measurement": "Fibrosis (periportal), Mean Grade", "setting": "[1]; [7]", "result": "0.3 ± 0.5"}, {"measurement": "Necrosis; Inflammatory cell foci, Mean Grade", "setting": "[1]; [7]", "result": "0.3 ± 0.5"}, {"measurement": "Vacuolation (centrilobular), Mean Grade", "setting": "[1]; [7]", "result": "2.0 ± 1.2"}, {"measurement": "Dose at which hepatocyte vacuolization (fatty change) was first observed", "setting": "[1]; females", "result": 10, "unit": "µg/kg"}, {"measurement": "Doses at which minimal to slight hepatocyte necrosis and inflammatory cell infiltration were present", "setting": "[1]; females", "result": 30, "unit": "µg/kg"}, {"measurement": "Bile duct proliferation, Incidence", "setting": "[1]; [8]", "result": "0/8"}, {"measurement": "Fibrosis (periportal), Incidence", "setting": "[1]; [8]", "result": "0/8"}, {"measurement": "Necrosis; Inflammatory cell foci, Incidence", "setting": "[1]; [8]", "result": "0/8"}, {"measurement": "Vacuolation (centrilobular), Incidence", "setting": "[1]; [8]", "result": "1/8"}, {"measurement": "Vacuolation (centrilobular), Mean Grade", "setting": "[1]; [8]", "result": "0.1 ± 0.4"}, {"measurement": "Bile duct proliferation, Incidence", "setting": "[1]; [9]", "result": "0/8"}, {"measurement": "Fibrosis (periportal), Incidence", "setting": "[1]; [9]", "result": "0/8"}, {"measurement": "Necrosis; Inflammatory cell foci, Incidence", "setting": "[1]; [9]", "result": "0/8"}, {"measurement": "Vacuolation (centrilobular), Incidence", "setting": "[1]; [9]", "result": "5/8"}, {"measurement": "Vacuolation (centrilobular), Mean Grade", "setting": "[1]; [9]", "result": "0.9 ± 0.8"}, {"measurement": "Bile duct proliferation, Incidence", "setting": "[1]; [10]", "result": "0/8"}, {"measurement": "Fibrosis (periportal), Incidence", "setting": "[1]; [10]", "result": "0/8"}, {"measurement": "Necrosis; Inflammatory cell foci, Incidence", "setting": "[1]; [10]", "result": "2/8"}, {"measurement": "Vacuolation (centrilobular), Incidence", "setting": "[1]; [10]", "result": "6/8"}, {"measurement": "Necrosis; Inflammatory cell foci, Mean Grade", "setting": "[1]; [10]", "result": "0.3 ± 0.5"}, {"measurement": "Vacuolation (centrilobular), Mean Grade", "setting": "[1]; [10]", "result": "1.0 ± 0.8"}, {"measurement": "Bile duct proliferation, Incidence", "setting": "[1]; [11]", "result": "0/8"}, {"measurement": "Fibrosis (periportal), Incidence", "setting": "[1]; [11]", "result": "0/8"}, {"measurement": "Necrosis; Inflammatory cell foci, Incidence", "setting": "[1]; [11]", "result": "6/8"}, {"measurement": "Vacuolation (centrilobular), Incidence", "setting": "[1]; [11]", "result": "8/8"}, {"measurement": "Necrosis; Inflammatory cell foci, Mean Grade", "setting": "[1]; [11]", "result": "0.8 ± 0.5"}, {"measurement": "Vacuolation (centrilobular), Mean Grade", "setting": "[1]; [11]", "result": "3.0 ± 0.5"}, {"measurement": "Bile duct proliferation, Incidence", "setting": "[1]; [12]", "result": "5/8"}, {"measurement": "Fibrosis (periportal), Incidence", "setting": "[1]; [12]", "result": "5/8"}, {"measurement": "Necrosis; Inflammatory cell foci, Incidence", "setting": "[1]; [12]", "result": "8/8"}, {"measurement": "Vacuolation (centrilobular), Incidence", "setting": "[1]; [12]", "result": "8/8"}, {"measurement": "Bile duct proliferation, Mean Grade", "setting": "[1]; [12]", "result": "0.9 ± 0.8"}, {"measurement": "Fibrosis (periportal), Mean Grade", "setting": "[1]; [12]", "result": "0.6 ± 0.5"}, {"measurement": "Necrosis; Inflammatory cell foci, Mean Grade", "setting": "[1]; [12]", "result": "1.3 ± 0.5"}, {"measurement": "Vacuolation (centrilobular), Mean Grade", "setting": "[1]; [12]", "result": "4.0 ± 0.0"}, {"measurement": "Dose at which hepatocyte vacuolization (fatty change) was first observed", "setting": "[1]; males", "result": 0.3, "unit": "µg/kg"}, {"measurement": "Doses at which minimal to slight hepatocyte necrosis and inflammatory cell infiltration were present", "setting": "[1]; males", "result": "≥ 3", "unit": "µg/kg"}, {"measurement": "fold induction at 0.03 mg/kg", "setting": "[2]", "result": 4.3}]}]}
